# Results published in US12502362B2, “Inhibitors of nucleotidyltransferase superfamily enzymes as antibiotics” (priority 2017, dated 2025).
# Legend:
# Staphylococcus hominis = assay: MIC80 on S. hominis; format: cell-based
# Method: (§1) To further characterize the compounds, the minimal inhibitory concentration (MIC80) were determined for selected compounds. MIC80 is defined as the compound concentration at which ≥80% bacterial growth is inhibited compare to untreated controls. Meanwhile, for the selected compounds, cytotoxicity assays (CC50) were performed on a HepG2-derived hepatoblastoma cell line (HEPDES19). […] For the MIC80 measurements, a 1.5 fold dilution series of the compounds was prepared in Mueller-Hinton II broth. […] For CC50 evaluation, soluble tetrazolium dye (MTS) was used to measure mitochondrial toxicity in a human hepatoblastoma cell line (18). The bacteria (E. coli, S. saprophyticus and A. baumannii) used in MIC80 measurements were the same as that in the primary screening, but for Staphylococcus, S. aureus is used primarily because it is a common pathogen in Staphylococcaeae family, while S. saprophyticus is part of the normal human flora. S. aureus (ATCC 29213) is methicillin-sensitive Staphylococcus aureus (MSSA) strain and it was used as a model strain to measure the MIC80.
# (§2) It was also tested whether compounds #63 and #285 can inhibit other coagulase-negative Staphylococcus (CNS) including S. epidermidis, S. hominis, etc. […] .
# [1] = system: S. aureus ATCC strains and methicillin-resistant Staphylococcus aureus (MRSA); assay: MIC80 on S. aureus ATCC strains and MRSA; format: cell-based
# Method: (§3) To further characterize the compounds, the minimal inhibitory concentration (MIC80) were determined for selected compounds. MIC80 is defined as the compound concentration at which ≥80% bacterial growth is inhibited compare to untreated controls. Meanwhile, for the selected compounds, cytotoxicity assays (CC50) were performed on a HepG2-derived hepatoblastoma cell line (HEPDES19). […] For CC50 evaluation, soluble tetrazolium dye (MTS) was used to measure mitochondrial toxicity in a human hepatoblastoma cell line (18). The bacteria (E. coli, S. saprophyticus and A. baumannii) used in MIC80 measurements were the same as that in the primary screening, but for Staphylococcus, S. aureus is used primarily because it is a common pathogen in Staphylococcaeae family, while S. saprophyticus is part of the normal human flora.
# [2] = system: Coagulase negative Staphylococcus; assay: MIC80 on coagulase negative Staphylococcus; format: cell-based
# Method: as §1, §2
# [3] = system: Staphylococcus saprophyticus (ATCC BAA-750); assay: MIC80 on S. saprophyticus; format: cell-based; details: Staphylococcus saprophyticus, ATCCBAA750; S. saprophyticus ATCC BAA-750; read-out: MIC80 S. sapro
# Method: as §3
# [4] = system: HepG2-derived hepatoblastoma cell line (HEPDES19); assay: Cytotoxicity assay (CC50), MTS; format: cell-based, human; details: HEPDES19 cells
# Method: as §3
# [5] = Cytotoxicity assay (CC50), MTS; format: cell-based, human; details: human, HepG2-derived hepatoblastoma cell line (HEPDES19), HEPDES19 cells
# Method: as §3
# E. coli (ATCC 35218) = assay: microbe, parasite or virus in culture; format: cell-based; details: for MIC80: Escherichia coli, ATCC35218, read-out: MIC80 E. coli, E. coli ATCC 35218
# Method: as §3
# [6] = system: Acinetobacter baumannii (Abl, from a patient); assay: microbe, parasite or virus in culture; format: cell-based; details: Acinetobacter baumannii, read-out: MIC80 A. baumannii, A. baumannii Ab1, MDR patient isolate
# Method: as §3
# [7] = system: S. aureus and/or S. saprophyticus; assay: MIC80 on S. aureus and/or S. saprophyticus; format: cell-based; details: read-out: MIC80 against S. aureus and/or S. saprophyticus
# Method: as §1
# [8] = system: Staphylococcus epidermidis; assay: MIC80 on S. epidermidis; format: cell-based
# Method: as §1, §2
# S. aureus (ATCC 29213) = assay: MIC80 on S. aureus; format: cell-based, Staphylococcus aureus; details: Staphylococcus aureus, ATCC 29213 / MSSA, read-out: MIC80 S. aureus, S. aureus ATCC 29213 (MSSA); ≥80% growth inhibition
# Method: as §3
# MDR Enterobacteriaceae = assay: microbe, parasite or virus in culture; format: cell-based; details: Escherichia coli, read-out: MIC80 on MDR Enterobacteriaceae
# Method: as §3
# (§4) All these MDR-bacteria are at least resistant to two classes of the antibiotics among five groups and/or specific antibiotics including quinolones/fluorquinolones, carbapenems, cephalosporins, aminoglycosides and piperacillin-tazobactam.
# Klebsiella pneumoniae = assay: microbe, parasite or virus in culture; format: cell-based; details: Klebsiella pneumoniae
# Method: as §3, §4
# MDR E. coli = assay: microbe, parasite or virus in culture; format: cell-based; details: Escherichia coli
# Method: as §3, §4
# Morganella morganii = assay: microbe, parasite or virus in culture; format: cell-based; details: Morganella morganii
# Method: as §3, §4
# Citrobacter koseri = assay: microbe, parasite or virus in culture; format: cell-based; details: Citrobacter koseri
# Method: as §3, §4
# [9] = system: Enterobacter cloacae complex; assay: microbe, parasite or virus in culture; format: cell-based; details: Enterobacter cloacae
# Method: as §3, §4
structure (smiles),measurement,setting,value
O=C(Oc1cccccc1=O)c1ccc(Cl)cc1 [Compound 63],MIC80,Staphylococcus hominis; Sh1 (Staphylococcus hominis),8.8 µM
same,MIC80,Staphylococcus hominis; Sh2 (Staphylococcus hominis),13.2 µM
same,MIC80,Staphylococcus hominis; Sh3 (Staphylococcus hominis),8.8 µM
same,MIC80,"[1]; ATCC 25923 / MRSA, S. aureus ATCC 25923",8.8 µM
same,MIC80,"[1]; ATCC 29213 / MRSA, S. aureus ATCC 29213 (Table 3)",8.8 µM
same,MIC80,"[1]; BAA-976 / MRSA, S. aureus ATCC BAA 976",13.2 µM
same,MIC80,"[1]; BAA-977 / MRSA, S. aureus ATCC BAA 977",8.8 µM
same,MIC80,"[1]; MRSA, Sa1 (MRSA)",8.8 µM
same,MIC80,"[1]; MRSA, Sa2 (MRSA)",8.8 µM
same,MIC80,"[1]; MRSA, Sa3 (MRSA)",8.8 µM
same,MIC80,"[1]; MRSA, Sa5 (MRSA)",8.8 µM
same,MIC80,"[1]; MRSA, Sa6 (MRSA)",8.8 µM
same,MIC80,"[1]; MRSA, Sa7 (MRSA)",8.8 µM
same,MIC80,"[1]; MRSA, Sa8 (MRSA)",8.8 µM
same,MIC80,"[1]; MRSA, Sa9 (MRSA)",8.8 µM
same,MIC80,"[1]; MRSA, Sa10 (MRSA)",8.8 µM
same,MIC80,"[1]; MRSA, Sa11 (MRSA)",8.8 µM
same,MIC80,"[1]; MRSA, Sa12 (MRSA)",8.8 µM
same,MIC80,"[1]; MRSA, Sa14 (MRSA)",8.8 µM
same,MIC80,"[1]; MRSA, Sa15 (MRSA)",8.8 µM
same,MIC80,"[1]; MRSA, Sa16 (MRSA)",8.8 µM
same,MIC80,"[1]; MRSA, Sa17 (MRSA)",8.8 µM
same,MIC80,"[1]; MRSA, Sa18 (MRSA)",8.8 µM
same,MIC80,"[1]; MRSA, Sa19 (MRSA)",8.8 µM
same,MIC80,"[1]; MRSA, Sa20 (MRSA)",8.8 µM
same,MIC80,"[1]; MRSA, Sa21 (MRSA)",8.8 µM
same,MIC80,"[1]; MRSA, Sa22 (MRSA)",8.8 µM
same,MIC80,"[1]; MRSA, Sa23 (MRSA)",8.8 µM
same,MIC80,[2]; CNS1 (Coagulase negative Staphylococcus),13.2 µM
same,MIC80,[2]; CNS2 (Coagulase negative Staphylococcus),5.9 µM
same,MIC80,[3],9.2 µM
same,CC50,[4],≥ 100 µM
same,CC50,[5],> 50 µM
same,MIC80,E. coli (ATCC 35218),111 µM
same,MIC80,[6],83.4 µM
same,MIC80,[7],< 20 µM
same,MIC80,[8]; Se1 (Staphylococcus epidermidis),8.8 µM
same,MIC80,[8]; Se2 (Staphylococcus epidermidis),8.8 µM
same,MIC80,[8]; Se3 (Staphylococcus epidermidis),8.8 µM
same,MIC80,[8]; Se4 (Staphylococcus epidermidis),8.8 µM
same,MIC80,[8]; Se5 (Staphylococcus epidermidis),8.8 µM
same,MIC80,S. aureus (ATCC 29213),16.5 µM
Cc1ccc(C(=O)Sc2cccccc2=O)cc1 [Compound 284],MIC80,MDR Enterobacteriaceae,≤ 20 µM
same,MIC80,Klebsiella pneumoniae; Kp1 (Klebsiella pneumonia),5.9 µM
same,MIC80,Klebsiella pneumoniae; Kp6 (Klebsiella pneumonia),29.6 µM
same,MIC80,MDR E. coli; Ec1 (MDR E. coli),5.9 µM
same,MIC80,MDR E. coli; Ec2 (MDR E. coli),3.9 µM
same,MIC80,MDR E. coli; Ec3 (MDR E. coli),5.9 µM
same,MIC80,MDR E. coli; Ec4 (MDR E. coli),8.8 µM
same,MIC80,MDR E. coli; Ec5 (MDR E. coli),29.6 µM
same,MIC80,Morganella morganii,19.8 µM
same,MIC80,Citrobacter koseri,8.8 µM
same,MIC80,[9],8.8 µM
same,MIC80,[3],44.4 µM
same,CC50,[5],> 50 µM
same,MIC80 E. coli,E. coli (ATCC 35218); E. coli ATCC 35218,24.1 µM
same,MIC80,E. coli (ATCC 35218),< 30 µM
same,MIC80,[6],55.6 µM
same,MIC80,[7],< 20 µM
same,MIC80,S. aureus (ATCC 29213),15 µM
